Assay results: patent US20150290106A1, “Dentotropic Conjugates and Compositions and Methods of Use Thereof” (BOARD OF REGENTS OF THE UNIVERSITY OF NEBRASKA, priority 2012, published 2015)

Experiments:
[1] = Model tooth surface binding experiment (menthol-PPi/hydroxyapatite binding by 1H NMR); conditions: for speed of binding to HA (time to maximum binding): HA powder, vortex agitation, diphosphate
Method: Menthol-PPi (80 mg) was dissolved in deuterium oxide (D2O, 16.1159 g). Two drops (34.7 mg) of acetone was added as an internal reference when using NMR spectroscopy. Four time intervals were chosen for this study, each with three samples for each interval. Into each of twelve microcentrifuge tubes was added 10 mg hydroxyapatite (HA). One by one, […] was added to the tubes and then agitated with a vortex mixer at high speed for the allotted amount of time. Each tube was then centrifuged at 12.000 rpm for one minute. The liquid was then transferred to NMR tubes for analysis. Three blank NMR samples without the influence of HA were prepared for reference, as well as three control samples without pyrophosphate (i.e., menthol only) with HA. The spectra of the blank samples were compared to those of the experimental samples by observing the relative integration areas of the acetone peak vs. the signal from one methyl group of menthol's isopropyl component. No binding is observed without pyrophosphate.
An additional experiment was performed, changing the hydroxyapatite amount while keeping the vortex time fixed at 2 minutes for each sample, simulating the average time a person spends brushing his or her teeth. Menthol-PPi (80 mg) was dissolved in 16.14 g D2O. Two drops (25.7 mg) of acetone were again added as internal reference. One gram of the menthol-PPi solution was added to the HA test tubes just prior to vortex agitation, as before. Samples were again analyzed via ^1H NMR.

[2] = Menthol release in filtered saliva diluted 1:1 with PBS over 24 hours (GC/MS, FIG. 2); assay type: in vitro ADME, human; conditions: saliva/PBS 1:1, 37° C.
Method: FIG. 2 provides a graph of the menthol release after chloroform extraction over the course of 24 hours.
Into several 15-mL glass vials were placed 10 mg of menthol-PPi and 2 mL of fresh saliva. The saliva had been centrifuged to remove any free particles, then filtered through a 0.45 μm syringe filter to rid bacteria. It was then diluted 1:1 by volume with phosphate-buffered saline (PBS). Each sample was placed in a water bath incubator at 37° C., shaking at 40 rpm, for a specific amount of time over the course of 24 hours. One sample was withdrawn at each time interval, and vortexed for 10 seconds after direct addition of 2 mL of chloroform. The mixture was transferred to microcentrifuge tubes, after which each tube was centrifuged at 12,000 rpm for one minute to separate the chloroform phase from the water (saliva/PBS) phase. […] After GC/MS analysis of each sample, the total amount of menthol released was calculated using the integration areas of menthol and neomenthol, simplified into a ratio. […] The absolute amount, in μg, of menthol in each GC/MS vial was determined by multiplying the concentration by 1 mL, the total amount of solution in the vial. Then, the release amount was calculated by taking the previous value and multiplying it by a factor of 4, since the original sample was 2 mL. […]

SMILES | HA-Bound Conjugate (% ± σ %) ([1]; 10 mg hydroxyapatite, vortex time 1 min) [%] | HA-Bound Conjugate (% ± σ %) ([1]; 10 mg hydroxyapatite, vortex time 2 min) [%] | HA-Bound Conjugate (% ± σ %) ([1]; 10 mg hydroxyapatite, vortex time 5 min) [%] | HA-Bound Conjugate (% ± σ %) ([1]; 10 mg hydroxyapatite, vortex time 10 min) [%] | HA-Bound Conjugate (% ± σ %) ([1]; 20 mg hydroxyapatite, time fixed at two minutes) [%] | HA-Bound Conjugate (% ± σ %) ([1]; 30 mg hydroxyapatite, time fixed at two minutes) [%] | HA-Bound Conjugate (% ± σ %) ([1]; 40 mg hydroxyapatite, time fixed at two minutes) [%] | speed of binding to HA (time to maximum binding) [1] | speed of binding to HA (time to maximum binding) ([1]; listed as menthol-PPi) | release profile of menthol from the pyrophosphate [2] | binding to HA ([1]; control samples without pyrophosphate (menthol only) with HA)
CC(C)[C@@H]1CC[C@@H](C)C[C@H]1OC(=O)COP(=O)([O-])OP(=O)([O-])[O-].[Na+].[Na+].[Na+] [Menthol-PPi, sodium 2-((1R,2S,5R)-2-isopropyl-5-methylcyclohexyloxy)-2-oxoethyl diphosphate] | 27.56 ± 4.44 | 25.69 ± 0.77 | 28.30 ± 2.70 | 28.25 ± 3.04 | 33.88 ± 6.32 | 45.04 ± 1.34 | 54.51 ± 3.65 | within one minute | very quickly | linear in nature | 
CC1CCC(C(C)C)C(O)C1 (centres unmarked) [menthol, reference compound] |  |  |  |  |  |  |  |  |  |  | No binding
